# Measurements from ChEMBL document CHEMBL1201862, “PubChem BioAssay data set” (2004).
#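 Briefly, cells in 96-well plates were exposed to five compound concentrations for 48 h, and endpoints were estimated by linear interpolation. The concentration for 50% growth inhibition is given as GI50.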 Active and inactive are the calls of the source. No stated cut-off is given here; in the data, active = GI50 up to about 1.1 µM and inactive = higher.
# What was measured:
# Test in all cases: NCI anticancer screen, dose series, 48 h
# 786-0 = system: 786-0
# A498 = system: A498
# A549 = system: A549
# ACHN = system: ACHN
# BT-549 = system: BT-549
# CCRF-CEM = system: CCRF-CEM
# COLO 205 = system: COLO 205
# DU-145 = system: DU-145
# EKVX = system: EKVX
# HCC 2998 = system: HCC 2998
# HCT-116 = system: HCT-116
# HCT-15 = system: HCT-15
# HL-60 = system: HL-60
# HOP-62 = system: HOP-62
# HOP-92 = system: HOP-92
# HT-29 = system: HT-29
# Hs-578T = system: Hs-578T
# IGROV-1 = system: IGROV-1
# K562 = system: K562
# KM12 = system: KM12
# LOX IMVI = system: LOX IMVI
# M14 = system: M14
# MCF7 = system: MCF7
# MDA-MB-231 = system: MDA-MB-231
# MDA-MB-435 = system: MDA-MB-435
# MDA-N = system: MDA-N
# MOLT-4 = system: MOLT-4
# Malme-3M = system: Malme-3M
# NCI-H226 = system: NCI-H226
# NCI-H23 = system: NCI-H23
# NCI-H460 = system: NCI-H460
# NCI/ADR-RES = system: NCI/ADR-RES
# OVCAR-3 = system: OVCAR-3
# OVCAR-4 = system: OVCAR-4
# OVCAR-5 = system: OVCAR-5
# OVCAR-8 = system: OVCAR-8
# PC-3 = system: PC-3
# RPMI-8226 = system: RPMI-8226
# RXF 393 = system: RXF 393
# SF-268 = system: SF-268
# SF-295 = system: SF-295
# SF-539 = system: SF-539
# SK-MEL-28 = system: SK-MEL-28
# SK-MEL-2 = system: SK-MEL-2
# SK-MEL-5 = system: SK-MEL-5
# SK-OV-3 = system: SK-OV-3
# SN12C = system: SN12C
# SNB-19 = system: SNB-19
# SNB-75 = system: SNB-75
# SR = system: SR
# SW-620 = system: SW-620
# T47D = system: T47D
# TK-10 = system: TK-10
# U-251 = system: U-251
# UACC-257 = system: UACC-257
# UACC-62 = system: UACC-62
# UO-31 = system: UO-31
# CAKI-1 = system: CAKI-1
# NCI-H522 = system: NCI-H522
smiles,measurement,setting,value
CNC(=O)OCC1=C(COC(=O)NC)CN(c2ccc(OC)cc2)C1,GI50,786-0,> 100 µM (inactive)
same,GI50,A498,1.9 µM (inactive)
same,GI50,A549,> 100 µM (inactive)
same,GI50,ACHN,> 100 µM (inactive)
same,GI50,BT-549,> 100 µM (inactive)
same,GI50,CCRF-CEM,> 100 µM (inactive)
same,GI50,COLO 205,> 100 µM (inactive)
same,GI50,DU-145,> 100 µM (inactive)
same,GI50,EKVX,> 100 µM (inactive)
same,GI50,HCC 2998,> 100 µM (inactive)
same,GI50,HCT-116,> 100 µM (inactive)
same,GI50,HCT-15,> 100 µM
same,GI50,HL-60,> 100 µM (inactive)
same,GI50,HOP-62,> 100 µM (inactive)
same,GI50,HOP-92,> 100 µM (inactive)
same,GI50,HT-29,> 100 µM (inactive)
same,GI50,Hs-578T,> 100 µM (inactive)
same,GI50,IGROV-1,> 100 µM (inactive)
same,GI50,K562,> 100 µM (inactive)
same,GI50,KM12,> 100 µM (inactive)
same,GI50,LOX IMVI,> 100 µM (inactive)
same,GI50,M14,> 100 µM (inactive)
same,GI50,MCF7,> 100 µM (inactive)
same,GI50,MDA-MB-231,> 100 µM (inactive)
same,GI50,MDA-MB-435,> 100 µM (inactive)
same,GI50,MDA-N,> 100 µM (inactive)
same,GI50,MOLT-4,> 100 µM (inactive)
same,GI50,Malme-3M,> 100 µM (inactive)
same,GI50,NCI-H226,4.2 µM (inactive)
same,GI50,NCI-H23,> 100 µM (inactive)
same,GI50,NCI-H460,> 100 µM (inactive)
same,GI50,NCI/ADR-RES,> 100 µM (inactive)
same,GI50,OVCAR-3,> 100 µM (inactive)
same,GI50,OVCAR-4,> 100 µM (inactive)
same,GI50,OVCAR-5,> 100 µM (inactive)
same,GI50,OVCAR-8,> 100 µM (inactive)
same,GI50,PC-3,> 100 µM (inactive)
same,GI50,RPMI-8226,> 100 µM (inactive)
same,GI50,RXF 393,> 100 µM (inactive)
same,GI50,SF-268,> 100 µM (inactive)
same,GI50,SF-295,> 100 µM (inactive)
same,GI50,SF-539,> 100 µM (inactive)
same,GI50,SK-MEL-28,> 100 µM (inactive)
same,GI50,SK-MEL-2,> 100 µM (inactive)
same,GI50,SK-MEL-5,> 100 µM (inactive)
same,GI50,SK-OV-3,> 100 µM (inactive)
same,GI50,SN12C,> 100 µM (inactive)
same,GI50,SNB-19,> 100 µM (inactive)
same,GI50,SNB-75,> 100 µM (inactive)
same,GI50,SR,> 100 µM (inactive)
same,GI50,SW-620,> 100 µM (inactive)
same,GI50,T47D,> 100 µM (inactive)
same,GI50,TK-10,85.7 µM (inactive)
same,GI50,U-251,> 100 µM (inactive)
same,GI50,UACC-257,> 100 µM (inactive)
same,GI50,UACC-62,> 100 µM (inactive)
same,GI50,UO-31,80.9 µM (inactive)
COc1ccc(C(=O)C2CC3(CCC2(O)c2ccc(OC)cc2)CC(=O)Nc2ccccc2C3=O)cc1 (centres undefined),GI50,A498,> 100 µM (inactive)
same,GI50,A549,> 100 µM (inactive)
same,GI50,BT-549,> 100 µM (inactive)
same,GI50,CAKI-1,> 100 µM (inactive)
same,GI50,CCRF-CEM,4.38 µM (inactive)
same,GI50,COLO 205,11.7 µM (inactive)
same,GI50,DU-145,> 100 µM (inactive)
same,GI50,EKVX,> 100 µM (inactive)
same,GI50,HCC 2998,79.3 µM (inactive)
same,GI50,HCT-116,28.4 µM (inactive)
same,GI50,HCT-15,5.85 µM
same,GI50,HL-60,5.08 µM (inactive)
same,GI50,HOP-62,> 100 µM (inactive)
same,GI50,HOP-92,0.5 µM (active)
same,GI50,HT-29,> 100 µM (inactive)
same,GI50,Hs-578T,> 100 µM (inactive)
same,GI50,IGROV-1,> 100 µM (inactive)
same,GI50,K562,> 100 µM (inactive)
same,GI50,LOX IMVI,> 100 µM (inactive)
same,GI50,M14,> 100 µM (inactive)
same,GI50,MCF7,3.03 µM (inactive)
same,GI50,MDA-MB-231,> 100 µM (inactive)
same,GI50,MDA-MB-435,> 100 µM (inactive)
same,GI50,MDA-N,> 100 µM (inactive)
same,GI50,Malme-3M,> 100 µM (inactive)
same,GI50,NCI-H226,> 100 µM (inactive)
same,GI50,NCI-H23,> 100 µM (inactive)
same,GI50,NCI-H460,6.75 µM (inactive)
same,GI50,NCI/ADR-RES,> 100 µM (inactive)
same,GI50,OVCAR-3,> 100 µM (inactive)
same,GI50,OVCAR-4,1.55 µM (inactive)
same,GI50,OVCAR-5,> 100 µM (inactive)
same,GI50,OVCAR-8,> 100 µM (inactive)
same,GI50,PC-3,1.44 µM (inactive)
same,GI50,RXF 393,> 100 µM (inactive)
same,GI50,SF-268,> 100 µM (inactive)
same,GI50,SF-295,> 100 µM (inactive)
same,GI50,SF-539,> 100 µM (inactive)
same,GI50,SK-MEL-2,> 100 µM (inactive)
same,GI50,SK-MEL-5,4.98 µM (inactive)
same,GI50,SK-OV-3,> 100 µM (inactive)
same,GI50,SN12C,> 100 µM (inactive)
same,GI50,SNB-75,4.4 µM (inactive)
same,GI50,SR,> 100 µM (inactive)
same,GI50,SW-620,> 100 µM (inactive)
same,GI50,T47D,0.366 µM (active)
same,GI50,TK-10,> 100 µM (inactive)
same,GI50,U-251,63.7 µM (inactive)
same,GI50,UACC-257,> 100 µM (inactive)
same,GI50,UACC-62,> 100 µM (inactive)
same,GI50,UO-31,18.1 µM (inactive)
CCOc1ccc(/N=N/C2C(=O)N(C(=O)CC(=O)Nc3ccccc3)N=C2C)cc1 (centres undefined),GI50,786-0,> 100 µM (inactive)
same,GI50,A498,79.4 µM (inactive)
same,GI50,A549,34.5 µM (inactive)
same,GI50,ACHN,> 100 µM (inactive)
same,GI50,BT-549,33.6 µM (inactive)
same,GI50,CAKI-1,55.3 µM (inactive)
same,GI50,CCRF-CEM,> 100 µM (inactive)
same,GI50,COLO 205,> 100 µM (inactive)
same,GI50,DU-145,> 100 µM (inactive)
same,GI50,EKVX,17.4 µM (inactive)
same,GI50,HCC 2998,40.9 µM (inactive)
same,GI50,HCT-116,29.1 µM (inactive)
same,GI50,HCT-15,57.4 µM
same,GI50,HL-60,33.8 µM (inactive)
same,GI50,HOP-62,59.3 µM (inactive)
same,GI50,HOP-92,28.5 µM (inactive)
same,GI50,HT-29,33.6 µM (inactive)
same,GI50,Hs-578T,16 µM (inactive)
same,GI50,IGROV-1,37.3 µM (inactive)
same,GI50,KM12,18.6 µM (inactive)
same,GI50,LOX IMVI,43.3 µM (inactive)
same,GI50,M14,58.1 µM (inactive)
same,GI50,MCF7,54.8 µM (inactive)
same,GI50,MDA-MB-231,39.8 µM (inactive)
same,GI50,MDA-MB-435,5.07 µM (inactive)
same,GI50,MDA-N,2.68 µM (inactive)
same,GI50,MOLT-4,36.5 µM (inactive)
same,GI50,Malme-3M,> 100 µM (inactive)
same,GI50,NCI-H226,> 100 µM (inactive)
same,GI50,NCI-H23,78.3 µM (inactive)
same,GI50,NCI-H460,34.6 µM (inactive)
same,GI50,NCI-H522,83.9 µM (inactive)
same,GI50,NCI/ADR-RES,75.7 µM (inactive)
same,GI50,OVCAR-3,53.8 µM (inactive)
same,GI50,OVCAR-4,> 100 µM (inactive)
same,GI50,OVCAR-5,> 100 µM (inactive)
same,GI50,OVCAR-8,> 100 µM (inactive)
same,GI50,PC-3,> 100 µM (inactive)
same,GI50,RXF 393,> 100 µM (inactive)
same,GI50,SF-268,61.8 µM (inactive)
same,GI50,SF-295,> 100 µM (inactive)
same,GI50,SF-539,35.2 µM (inactive)
same,GI50,SK-MEL-28,48.5 µM (inactive)
same,GI50,SK-MEL-2,66.4 µM (inactive)
same,GI50,SK-MEL-5,42.8 µM (inactive)
same,GI50,SN12C,82 µM (inactive)
same,GI50,SNB-19,36.5 µM (inactive)
same,GI50,SNB-75,23.1 µM (inactive)
same,GI50,SR,27.4 µM (inactive)
same,GI50,SW-620,33.4 µM (inactive)
same,GI50,T47D,30.8 µM (inactive)
same,GI50,TK-10,> 100 µM (inactive)
same,GI50,U-251,34.8 µM (inactive)
same,GI50,UACC-257,> 100 µM (inactive)
same,GI50,UACC-62,39.5 µM (inactive)
same,GI50,UO-31,> 100 µM (inactive)
